# Measurements: patent publication US8133709B2, “Target sequences for synthetic molecules” (Life Technologies Corporation, priority 2003, dated 2012)
# What was measured:
# [1] = target: T1, ACP-CCPGCC (tetracysteine version of Acyl Carrier protein) (Escherichia coli, UniProt P0A6A8); experiment: FlAsH-EDT2 labeling of in vitro synthesised protein, SDS-PAGE, UV light box; format: binding; conditions: 10 μM in LDS sample buffer, 70° C. 10 minutes; control; FIG. 14
# T1 construct: made in house; host or cells: Cell-free: Expressway in vitro protein synthesis kit (S30 E. coli extract)
# Description: In vitro protein synthesis was carried out using the Expressway™ in vitro protein synthesis kit (Invitrogen, Carlsbad, Calif., Catalog #K9600-02). Following the manufacture's protocol 1 μg of AcpS vector DNA was added to a total volume of 50 μL of S30 E. coli extract and reaction buffer. As a control, a tetracysteine (CCPGCC) (SEQ. ID NO: 53) version of Acyl Carrier protein (ACP) (SEQ. ID NO: 7) was also expressed via the Expressway™ kit. The reaction was placed at 37° C. with 225 rpm shaking for two hours. After incubation 5 μL of RNase A was added to the reaction, after which an additional 15 minute incubation at 37° C. was performed. Protein from the in vitro protein synthesis reaction was prepared for SDS-PAGE analysis through an acetone precipitation procedure. 5 μl of reaction was added to 20 μL of 100% acetone. After mixing well the acetone solution was centrifuged for 5 minutes at room temperature in a microcentrifuge at 12,000 rpm. The supernatant was removed and the pellet was allowed to dry for 5 minutes. The pellet was resuspended in a 50 μL volume of LDS sample buffer (Invitrogen, Carlsbad, Calif., Catalog #NP0007) containing 10 μM FlAsH-EDT2. The samples were heated to 70° C. for 10 minutes and 10 μL of the samples were then loaded onto a 4-12% NUPAGE® pre-cast gel (Invitrogen, Carlsbad, Calif.) using MES running buffer. […]
# SlyD-C167A/C168A = target: T2, SlyD-C167A/C168A (Escherichia coli, UniProt P0A9K9, C167A/C168A); experiment: Binding mode: FlAsH-EDT2 labeling of in vitro synthesised SlyD versions, SDS-PAGE; conditions: 10 μM in LDS sample buffer; FIG. 15
# T2 construct: Lane 2 is full length, hexahistidine tagged SlyD with two point mutations; made in house; host or cells: Cell-free: Expressway in vitro protein synthesis kit (S30 E. coli extract)
# Description: (§1) The mode of binding of a biarsenical to a target sequence was examined using the Expressway™ in vitro protein synthesis kit (Invitrogen, Carlsbad, Calif.) and SDS-PAGE. Following the manufacture's protocol 1 μg of SlyD+His tag (SEQ. ID NO: 8), SlyD-C167A/C168A (SEQ. ID NO: 9), and SlyD-trunc171 (SEQ. ID NO: 10) vector DNAs were added to a total volume of 50 μL of S30 E. coli extract and reaction buffer. The reaction was placed at 37° C. with 225 rpm shaking for two hours. After incubation 5 μL of RNase A was added to the reaction, after which an additional 15 minute incubation at 37° C. was performed. Protein from the in vitro protein synthesis reaction was prepared for SDS-PAGE analysis through an acetone precipitation procedure. 5 μl of reaction was added to 20 μL of 100% acetone. After mixing well the acetone solution was centrifuged for 5 minutes at room temperature in a microcentrifuge at 12,000 rpm. The supernatant was removed and the pellet was allowed to dry for 5 minutes. The pellet was resuspended in a 50 μL volume of LDS sample buffer (Invitrogen, Carlsbad, Calif.) containing 10 μM FlAsH-EDT2. The samples were heated to 70° C. for 10 minutes and 10 μL of the samples were then loaded onto a 4-12% NuPAGE® pre-cast gel (Invitrogen, Carlsbad, Calif., Catalog #NP0239 Box) using MES running buffer. The gel was electrophoresed at 200 volts for about 30 minutes. Immediately following electrophoresis the gel was removed from the cassette and visualized on a UV light box.
# SlyD+His tag = target: T3, SlyD+His tag (Escherichia coli, UniProt P0A9K9); experiment: as above; conditions: 10 μM in LDS sample buffer; FIG. 15
# T3 construct: Lane 1 is full length, hexahistidine tagged SlyD (SlyD+His tag); made in house; host or cells: Cell-free: Expressway in vitro protein synthesis kit (S30 E. coli extract)
# Description: as §1
# SlyD-trunc171 = target: T4, SlyD-trunc171 (Escherichia coli, UniProt P0A9K9); experiment: as above; conditions: 10 μM in LDS sample buffer; FIG. 15
# T4 construct: a hexahistidine tagged version of SlyD truncated after position 171 (SlyD-trunc171); made in house; host or cells: Cell-free: Expressway in vitro protein synthesis kit (S30 E. coli extract)
# Description: as §1
# [2] = target: T5, SlyD+His tag (SlyD tetracysteine sequence) (Escherichia coli, UniProt P0A9K9); experiment: Specificity: labeling of a mixture of purified proteins, SDS-PAGE, laser gel scanner; format: binding; conditions: 10 μM in SDS-PAGE sample buffer; ACP:SlyD approximately 2:1; FIG. 17
# T5 construct: made in house; host or cells: E. coli BL21 (DE3), pRSET vector, Ni-NTA purified
# Description: The native SlyD sequence (SEQ. ID NO: 4) was cloned into the pRSET vector (Invitrogen, Carlsbad, Calif.) using standard molecular biology techniques. Purified protein was produced from this vector by first transforming BL21 (DE3) cells (Invitrogen, Carlsbad, Calif., Catalog #C6010-03) and plated on LB-ampicillin plates. A single colony was selected and grown in one liter of liquid LB broth to a density of 1 O.D. and 1 mM IPTG was added to induce protein expression. After three hours of protein induction the culture was harvested by centrifugation at 10,000×g for 5 minutes at 4° C. The cell pellet was resuspended in 50 mM HEPES (pH 7.5), 140 mM NaCl and sonicated on ice for a total of two minutes. The E. coli lysate was separated by centrifugation at 25,000×g for 20 minutes at 4° C. The supernatant contained the soluble protein and consequently it was loaded onto a Ni^2+-NTA column equilibrated in 50 mM HEPES (pH 7.5), 140 mM NaCl buffer. The column was washed with three column volumes of 50 mM HEPES (pH 7.5), 140 mM NaCl and non-specific binding proteins were removed by washing with 50 mM HEPES (pH 7.5), 140 mM NaCl, and 20 mM Imidazole. To elute the desired hexahistidine tagged SlyD, a solution of 50 mM HEPES (pH 7.5), 140 mM NaCl, and 250 mM Imidazole was added to the column. The protein eluted at greater than 90% purity. […]
# ACP = target: T6, ACP (Escherichia coli, UniProt P0A6A8); experiment: as above; format: binding; conditions: 10 μM in SDS-PAGE sample buffer; ACP:SlyD approximately 2:1; FIG. 17
# T6 construct: inferred for this product (C); purchased Invitrogen, Madison, Wis; P3080
# Description: ACP (Invitrogen, Madison, Wis., Catalog #P3080) was mixed at approximately 2:1 molar ratio with SlyD-His tag. The proteins were put in SDS-PAGE sample buffer supplemented with 10 μM FlAsH-EDT2, Cy3-EDT2, or Cy5-EDT2 and electrophoresed at 150 volts on a 4-20% Tris-glycine pre-cast Novex gel (Invitrogen, Carlsbad, Calif.). Immediately following electrophoresis the gel was imaged on a Fuji Film FLA 5000 laser gel scanner. […] Therefore, the SlyD tetracysteine sequence (SEQ. ID NO: 5) uniquely binds to biarsenical molecules and not to […].
# [3] = target: T7, AcpS+4Cys (SlyD tetracysteine sequence […] on AcpS) (Escherichia coli, UniProt P24224); experiment: FlAsH-EDT2 labeling of in vitro synthesised protein, SDS-PAGE, UV light box; format: binding; conditions: 10 μM in LDS sample buffer, 70° C. 10 minutes; compared with CCPGCC; FIG. 14
# T7 construct: made in house; host or cells: Cell-free: Expressway in vitro protein synthesis kit, S30 E. coli extract, from a pRSET vector
# T7 sequence (P24224 with tags, fused parts or gaps): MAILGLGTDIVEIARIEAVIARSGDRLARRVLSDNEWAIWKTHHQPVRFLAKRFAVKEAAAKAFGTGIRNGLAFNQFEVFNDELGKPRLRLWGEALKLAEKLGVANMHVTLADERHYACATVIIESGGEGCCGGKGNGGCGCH
# Source text: A target sequence that includes the SlyD (SEQ. ID NO: 4) tetracysteine sequence, CCGGKGNGGCGC (SEQ. ID NO: 5) was introduced onto the Carboxy-terminus of Acyl Carrier Protein S (AcpS). Since AcpS has only one endogenous cysteine amino acid and since AcpS is a robust stable protein, a substitution at the Carboxy-terminus could be made without altering the solubility of the properly folded protein. […] ID NO: 6. The mutated AcpS is referred to as AcpS+4Cys. The substitutions were generated using polymerase chain reaction with primers specific for the encoding the expression of the desired tetracysteine sequence. The nucleic acid sequence encoding the cysteine substituted AcpS was inserted into the pRSET vector (Invitrogen, Carlsbad, Calif., Catalog #V351-20) using restriction sites inherent to the vector's multiple cloning site. After amplification in DH5 bacteria, the vector was expressed using in vitro transcription and translation. See also, U.S. Provisional Patent Application No. 60/614,590, filed Oct. 1, 2004 and U.S. patent application Ser. No. 10/954,951, filed Oct. 1, 2004, incorporated by reference herein in their entireties, disclosing additional compositions and methods for in vitro transcription and translation.
# In vitro protein synthesis was carried out using the Expressway™ in vitro protein synthesis kit (Invitrogen, Carlsbad, Calif., Catalog #K9600-02). […]
# T4 sequence (P0A9K9 with tags, fused parts or gaps): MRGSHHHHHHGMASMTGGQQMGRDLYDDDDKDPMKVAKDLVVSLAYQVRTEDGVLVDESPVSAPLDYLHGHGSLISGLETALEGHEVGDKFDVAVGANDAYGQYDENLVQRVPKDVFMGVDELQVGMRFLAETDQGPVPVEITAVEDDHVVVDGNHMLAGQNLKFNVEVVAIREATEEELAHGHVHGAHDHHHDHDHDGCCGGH
# T1 sequence (P0A6A8 with tags, fused parts or gaps): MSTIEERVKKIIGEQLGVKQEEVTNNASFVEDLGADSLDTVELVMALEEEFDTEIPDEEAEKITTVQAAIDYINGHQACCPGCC
# T6 sequence (P0A6A8 with tags, fused parts or gaps): as above
# T2 sequence (P0A9K9 with tags, fused parts or gaps C167A/C168A): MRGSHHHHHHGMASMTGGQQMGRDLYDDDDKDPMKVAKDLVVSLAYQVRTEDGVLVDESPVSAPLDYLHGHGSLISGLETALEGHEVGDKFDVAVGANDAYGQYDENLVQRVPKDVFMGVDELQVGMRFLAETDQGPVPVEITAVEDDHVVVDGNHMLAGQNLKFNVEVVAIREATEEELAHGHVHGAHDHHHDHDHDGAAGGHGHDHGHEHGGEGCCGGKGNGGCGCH
# T5 sequence (P0A9K9 with tags, fused parts or gaps): as the sequence (P0A9K9 with tags, fused parts or gaps C167A/C168A) above, with A200C, A201C counted along it
# T3 sequence (P0A9K9 with tags, fused parts or gaps): as the sequence (P0A9K9 with tags, fused parts or gaps C167A/C168A) above, with A200C, A201C counted along it
structure (smiles),measurement,setting,value
O=C(O)c1ccccc1-c1c2ccc(=O)c([As]3SCCS3)c-2oc2c([As]3SCCS3)c(O)ccc12 [FlAsH-EDT2],labeling of the CCPGCC sequence (ACP),[1],equivalent labeling
same,labeling of SlyD-C167A/C168A,SlyD-C167A/C168A,identical labeling
same,labeling of SlyD+His tag,SlyD+His tag,identical labeling
same,labeling of SlyD-trunc171 (only a vicinal pair of cysteines),SlyD-trunc171,only two cysteines are required for biarsenical labeling
same,binding/labeling of SlyD+His tag,[2],binds to both SlyD+His tag and ACP
same,binding/labeling of ACP,ACP,binds to both SlyD+His tag and ACP
same,labeling of the CCGGKGNGGCGC sequence (AcpS+4Cys),[3],equivalent labeling
